According to ChEMBL document CHEMBL5291721, “A preclinical secondary pharmacology resource illuminates target-adverse drug reaction associations of marketed drugs” (Nat Commun, 2023):

Key:
[1] = target: Adenosine receptor A2a (Homo sapiens, UniProt P29274)
[2] = target: T1, Alpha-2A adrenergic receptor (Homo sapiens, UniProt P08913); assay type: functional, cell-based
T1 sequence (P08913 whole entry): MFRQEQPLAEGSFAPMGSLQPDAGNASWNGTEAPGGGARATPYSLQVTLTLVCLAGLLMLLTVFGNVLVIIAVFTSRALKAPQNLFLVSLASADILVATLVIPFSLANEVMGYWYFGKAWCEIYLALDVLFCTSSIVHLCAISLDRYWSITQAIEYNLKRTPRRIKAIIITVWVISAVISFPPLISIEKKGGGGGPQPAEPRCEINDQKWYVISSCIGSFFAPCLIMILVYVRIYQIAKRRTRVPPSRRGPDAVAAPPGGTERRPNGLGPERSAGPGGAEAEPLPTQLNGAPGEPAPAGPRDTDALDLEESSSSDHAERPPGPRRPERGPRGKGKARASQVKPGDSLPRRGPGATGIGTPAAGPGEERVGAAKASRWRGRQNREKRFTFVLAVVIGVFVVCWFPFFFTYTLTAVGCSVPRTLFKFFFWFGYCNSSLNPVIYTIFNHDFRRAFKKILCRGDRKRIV

[3] = target: T2, Alpha-2B adrenergic receptor (Homo sapiens, UniProt P18089)
T2 sequence (P18089 whole entry): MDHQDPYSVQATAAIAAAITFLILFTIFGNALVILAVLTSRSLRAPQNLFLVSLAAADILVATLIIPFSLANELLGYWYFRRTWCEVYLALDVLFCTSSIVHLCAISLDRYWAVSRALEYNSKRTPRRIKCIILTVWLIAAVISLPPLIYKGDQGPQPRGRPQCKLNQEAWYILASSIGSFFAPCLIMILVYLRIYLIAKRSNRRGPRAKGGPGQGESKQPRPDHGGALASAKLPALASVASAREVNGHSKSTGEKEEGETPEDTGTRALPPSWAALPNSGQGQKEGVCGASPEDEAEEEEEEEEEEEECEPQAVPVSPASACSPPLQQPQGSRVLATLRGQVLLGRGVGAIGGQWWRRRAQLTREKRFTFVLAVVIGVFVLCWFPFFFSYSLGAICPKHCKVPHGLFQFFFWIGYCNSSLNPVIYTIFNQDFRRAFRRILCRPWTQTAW

[4] = target: T3, Cholecystokinin receptor type A (Homo sapiens, UniProt P32238)
T3 sequence (P32238 whole entry): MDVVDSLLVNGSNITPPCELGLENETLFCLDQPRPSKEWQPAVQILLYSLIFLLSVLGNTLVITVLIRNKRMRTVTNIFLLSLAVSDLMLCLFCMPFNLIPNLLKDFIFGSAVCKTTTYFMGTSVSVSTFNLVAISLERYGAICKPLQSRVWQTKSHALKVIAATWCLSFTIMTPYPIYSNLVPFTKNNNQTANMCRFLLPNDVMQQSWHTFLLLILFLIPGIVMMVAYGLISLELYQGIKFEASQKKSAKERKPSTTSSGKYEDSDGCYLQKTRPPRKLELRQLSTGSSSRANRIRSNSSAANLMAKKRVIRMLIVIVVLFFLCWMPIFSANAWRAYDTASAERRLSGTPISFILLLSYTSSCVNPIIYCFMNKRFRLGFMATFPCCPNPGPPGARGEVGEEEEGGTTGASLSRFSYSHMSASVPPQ

[5] = target: T4, Muscarinic acetylcholine receptor M2 (Homo sapiens, UniProt P08172); assay type: functional, cell-based
T4 sequence (P08172 whole entry): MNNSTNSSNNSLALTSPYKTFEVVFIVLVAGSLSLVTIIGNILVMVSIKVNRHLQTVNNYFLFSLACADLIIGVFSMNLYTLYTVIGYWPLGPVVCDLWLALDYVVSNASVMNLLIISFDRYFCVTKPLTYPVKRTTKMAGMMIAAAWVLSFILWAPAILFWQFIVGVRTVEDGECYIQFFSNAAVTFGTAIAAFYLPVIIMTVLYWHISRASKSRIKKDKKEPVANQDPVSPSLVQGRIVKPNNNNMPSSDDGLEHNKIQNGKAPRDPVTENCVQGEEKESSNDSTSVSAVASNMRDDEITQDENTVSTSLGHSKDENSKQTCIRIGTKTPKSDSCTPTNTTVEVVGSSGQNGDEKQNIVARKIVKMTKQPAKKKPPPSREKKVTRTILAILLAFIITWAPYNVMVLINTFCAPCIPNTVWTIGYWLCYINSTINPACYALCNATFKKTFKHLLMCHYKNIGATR

[6] = target: T4, Muscarinic acetylcholine receptor M2; assay type: functional, cell-based; remark: listed apart in the source
[7] = target: Muscarinic acetylcholine receptor M3 (Homo sapiens, UniProt P20309)
Chain of Muscarinic acetylcholine receptor M3 (P20309 whole entry): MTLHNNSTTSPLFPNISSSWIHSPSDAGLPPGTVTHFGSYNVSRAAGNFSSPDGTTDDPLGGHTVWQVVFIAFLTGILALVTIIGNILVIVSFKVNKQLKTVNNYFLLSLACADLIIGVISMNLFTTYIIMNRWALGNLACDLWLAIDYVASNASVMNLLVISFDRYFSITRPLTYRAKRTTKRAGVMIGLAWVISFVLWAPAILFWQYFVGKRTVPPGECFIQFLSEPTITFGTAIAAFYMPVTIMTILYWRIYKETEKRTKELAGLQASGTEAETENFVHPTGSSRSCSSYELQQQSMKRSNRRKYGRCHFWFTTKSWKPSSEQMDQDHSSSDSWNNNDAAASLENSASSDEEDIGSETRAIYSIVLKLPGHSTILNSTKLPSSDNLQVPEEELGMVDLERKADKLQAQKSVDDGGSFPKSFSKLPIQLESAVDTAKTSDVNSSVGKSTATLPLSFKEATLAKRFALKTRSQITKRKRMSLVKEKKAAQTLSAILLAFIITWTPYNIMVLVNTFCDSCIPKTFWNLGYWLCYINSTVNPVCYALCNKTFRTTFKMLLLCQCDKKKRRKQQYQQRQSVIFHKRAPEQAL

[8] = target: D(1A) dopamine receptor (Homo sapiens, UniProt P21728); assay type: functional, cell-based
Chain of D(1A) dopamine receptor (P21728 whole entry): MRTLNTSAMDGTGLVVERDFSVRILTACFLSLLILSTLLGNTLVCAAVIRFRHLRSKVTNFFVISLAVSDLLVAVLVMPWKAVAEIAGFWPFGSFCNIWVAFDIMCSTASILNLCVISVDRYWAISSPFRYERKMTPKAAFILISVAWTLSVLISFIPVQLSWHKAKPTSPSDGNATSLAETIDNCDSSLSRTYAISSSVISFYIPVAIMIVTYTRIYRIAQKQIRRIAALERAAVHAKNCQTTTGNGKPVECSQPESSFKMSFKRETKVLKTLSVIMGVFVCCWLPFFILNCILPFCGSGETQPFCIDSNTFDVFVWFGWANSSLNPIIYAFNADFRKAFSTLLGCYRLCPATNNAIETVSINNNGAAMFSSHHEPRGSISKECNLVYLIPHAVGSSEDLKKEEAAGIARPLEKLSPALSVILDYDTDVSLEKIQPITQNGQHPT

[9] = target: Growth hormone secretagogue receptor type 1 (Homo sapiens, UniProt Q92847)
Chain of Growth hormone secretagogue receptor type 1 (Q92847 whole entry): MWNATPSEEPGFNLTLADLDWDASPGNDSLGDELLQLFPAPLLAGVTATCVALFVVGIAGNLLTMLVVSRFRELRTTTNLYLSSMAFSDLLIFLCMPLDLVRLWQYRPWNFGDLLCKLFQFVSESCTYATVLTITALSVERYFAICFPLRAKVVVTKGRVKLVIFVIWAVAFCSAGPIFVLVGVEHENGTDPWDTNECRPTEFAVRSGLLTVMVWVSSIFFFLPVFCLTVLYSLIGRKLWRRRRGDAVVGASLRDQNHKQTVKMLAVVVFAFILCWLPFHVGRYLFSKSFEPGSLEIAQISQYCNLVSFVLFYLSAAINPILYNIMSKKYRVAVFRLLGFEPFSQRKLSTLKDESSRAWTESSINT

[10] = target: 5-hydroxytryptamine receptor 2A (Homo sapiens, UniProt P28223); assay type: functional, cell-based
Chain of 5-hydroxytryptamine receptor 2A (P28223 whole entry): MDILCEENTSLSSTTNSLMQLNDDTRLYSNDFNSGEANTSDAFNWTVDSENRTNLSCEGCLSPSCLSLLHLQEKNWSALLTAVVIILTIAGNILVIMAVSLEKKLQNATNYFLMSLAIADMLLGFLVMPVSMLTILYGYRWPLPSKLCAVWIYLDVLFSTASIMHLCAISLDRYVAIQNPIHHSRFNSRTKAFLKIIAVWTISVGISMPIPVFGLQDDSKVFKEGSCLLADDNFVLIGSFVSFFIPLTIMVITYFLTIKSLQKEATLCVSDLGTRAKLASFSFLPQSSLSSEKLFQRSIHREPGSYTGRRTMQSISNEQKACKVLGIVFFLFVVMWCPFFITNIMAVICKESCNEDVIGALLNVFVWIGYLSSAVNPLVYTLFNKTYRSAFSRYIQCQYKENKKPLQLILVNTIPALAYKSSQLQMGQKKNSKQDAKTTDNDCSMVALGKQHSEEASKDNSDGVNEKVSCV

[11] = target: T5, Neuropeptide Y receptor type 1 (Homo sapiens, UniProt P25929)
T5 sequence (P25929 whole entry): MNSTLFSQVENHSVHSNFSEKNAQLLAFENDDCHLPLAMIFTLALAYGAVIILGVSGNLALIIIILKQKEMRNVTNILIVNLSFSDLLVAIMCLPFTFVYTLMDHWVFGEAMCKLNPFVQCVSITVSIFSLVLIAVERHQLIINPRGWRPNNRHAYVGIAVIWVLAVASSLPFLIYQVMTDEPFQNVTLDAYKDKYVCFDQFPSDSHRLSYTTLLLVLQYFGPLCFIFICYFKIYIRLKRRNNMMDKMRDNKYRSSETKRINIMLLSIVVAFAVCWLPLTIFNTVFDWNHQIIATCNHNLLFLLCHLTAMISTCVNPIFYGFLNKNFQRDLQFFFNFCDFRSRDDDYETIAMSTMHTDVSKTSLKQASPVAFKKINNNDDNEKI

[12] = target: T6, Thromboxane A2 receptor (Homo sapiens, UniProt P21731)
T6 sequence (P21731 whole entry): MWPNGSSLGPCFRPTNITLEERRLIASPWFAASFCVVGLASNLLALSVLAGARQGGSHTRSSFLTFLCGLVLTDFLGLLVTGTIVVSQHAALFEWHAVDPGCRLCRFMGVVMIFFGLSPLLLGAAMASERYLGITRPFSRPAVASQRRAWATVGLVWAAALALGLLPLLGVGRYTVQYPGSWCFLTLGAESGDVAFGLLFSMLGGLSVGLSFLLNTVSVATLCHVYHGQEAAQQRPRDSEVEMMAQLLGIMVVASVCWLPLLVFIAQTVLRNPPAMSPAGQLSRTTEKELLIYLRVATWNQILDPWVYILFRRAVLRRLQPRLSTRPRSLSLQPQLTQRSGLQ

Measured: AC50
Also: assay procedure not described here.

Chain of Adenosine receptor A2a (P29274 whole entry): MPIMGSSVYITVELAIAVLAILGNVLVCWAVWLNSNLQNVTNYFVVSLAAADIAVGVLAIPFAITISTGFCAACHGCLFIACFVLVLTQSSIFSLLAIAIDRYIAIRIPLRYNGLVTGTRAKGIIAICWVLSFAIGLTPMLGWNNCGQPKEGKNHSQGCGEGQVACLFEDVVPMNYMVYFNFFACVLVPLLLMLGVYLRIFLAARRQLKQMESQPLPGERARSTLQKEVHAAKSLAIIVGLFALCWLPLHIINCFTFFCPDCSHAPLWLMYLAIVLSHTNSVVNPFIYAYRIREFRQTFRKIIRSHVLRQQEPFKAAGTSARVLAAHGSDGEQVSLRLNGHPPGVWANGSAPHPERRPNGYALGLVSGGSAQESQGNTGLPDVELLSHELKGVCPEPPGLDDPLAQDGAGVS

COC(=O)C1=C(C)NC(C)=C(C(=O)OC(C)C)C1c1cccc2nonc12 (centres undefined) [ISRADIPINE]
20.1 µM: [12]
> 10 µM: [2] | [5] | [6] | [10]
> 30 µM: all other assays above

CCCCC(C)(O)C/C=C/[C@H]1[C@H](O)CC(=O)[C@@H]1CCCCCCC(=O)OC (some centres undefined) [MISOPROSTOL]
> 30 µM: all assays above

CN1CCCN=C1COC(=O)C(O)(c1ccccc1)C1CCCCC1 (centres undefined) [OXYPHENCYCLIMINE]
> 30 µM: [7]
0.07 µM: [6]
> 10 µM: all other assays above

CC(C)[N+](C)(CCC(C(N)=O)(c1ccccc1)c1ccccc1)C(C)C [ISOPROPAMIDE]
0.01 µM: [6]
0.0056 µM: [7]
> 10 µM: all other assays above

O=C(OCCN1CCOCC1)c1cccnc1Nc1cccc(C(F)(F)F)c1 [MORNIFLUMATE]
2.9 µM: [10]
> 30 µM: all other assays above

CCOC(=O)[C@H](CCc1ccccc1)N[C@H]1CCCN2CCC[C@@H](C(=O)O)N2C1=O [CILAZAPRIL]
> 30 µM: all assays above

C1=Cc2cccc(OCC3CNCCO3)c2C1 (centres undefined) [INDELOXAZINE]
17 µM: [10]
> 30 µM: all other assays above
